According to ChEMBL document CHEMBL4229418, “Design, synthesis and pharmacology of aortic-selective acyl-CoA: Cholesterol O-acyltransferase (ACAT/SOAT) inhibitors” (Bioorg Med Chem, 2018):
Calls of active or inactive are those of the source. The rule behind the calls is not given here.

Columns and labels:
[1] = Inhibition of SOAT1 in arterial homogenates isolated from 1% cholesterol fed New Zealand white rabbit assessed as reduction in cholesteryl oleate formation incubated for 5 mins in presence of [14C]-oleoyl-CoA and BSA complex by TLC method; type: tissue-based, Oryctolagus cuniculus
[2] = Inhibition of SOAT2 in New Zealand white rabbit intestinal microsomes assessed as reduction in cholesteryl oleate formation incubated for 5 mins in presence of [14C]-oleoyl-CoA and BSA complex by TLC method; parameters: species or system Oryctolagus cuniculus, Intestine
Oryctolagus cuniculus = organism: Oryctolagus cuniculus; experiment: Selectivity ratio of IC50 for inhibition of SOAT2 in New Zealand white rabbit intestinal microsomes to IC50 for inhibition of SOAT1 in arterial homogenates isolated from 1% cholesterol fed New Zealand white rabbit
[3] = biological target: T1, Sterol O-acyltransferase 1 (Mus musculus, UniProt Q61263); experiment: Inhibition of ACAT1 in mouse J774 cells assessed as reduction in esterified cholesterol accumulation after 18 hrs in presence of 25-hydroxycholesterol; type: cell-based
T1 sequence (Q61263 whole entry): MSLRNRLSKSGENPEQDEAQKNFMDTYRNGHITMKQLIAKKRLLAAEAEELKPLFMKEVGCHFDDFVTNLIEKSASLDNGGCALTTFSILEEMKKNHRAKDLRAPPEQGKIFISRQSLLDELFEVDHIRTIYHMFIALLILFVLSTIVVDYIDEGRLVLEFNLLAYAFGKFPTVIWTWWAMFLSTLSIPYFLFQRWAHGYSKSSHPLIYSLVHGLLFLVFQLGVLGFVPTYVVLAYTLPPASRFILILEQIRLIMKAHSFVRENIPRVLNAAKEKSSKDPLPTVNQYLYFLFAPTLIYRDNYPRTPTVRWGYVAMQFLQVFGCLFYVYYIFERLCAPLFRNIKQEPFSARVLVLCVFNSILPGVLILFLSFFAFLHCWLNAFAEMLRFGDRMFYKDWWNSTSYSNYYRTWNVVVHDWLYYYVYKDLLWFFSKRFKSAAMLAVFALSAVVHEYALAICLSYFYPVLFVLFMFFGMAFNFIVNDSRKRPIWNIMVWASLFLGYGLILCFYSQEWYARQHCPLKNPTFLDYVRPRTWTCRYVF

[4] = Drug metabolism in New Zealand white rabbit intestinal microsomes assessed as 2-((6-((2,6-Diisopropylphenyl)amino)-6-oxohexyl)thio)-benzo[d]oxazole-4-carboxylic acid formation after 30 mins; type: ADME, Oryctolagus cuniculus, Intestine, microsome; conditions: 0.5 h
[5] = Drug metabolism in New Zealand white rabbit intestinal microsomes assessed as -((6-((2,6-Diisopropylphenyl)amino)-6-oxohexyl)thio)benzo-[d]oxazole-7-carboxylic acid formation after 30 mins; type: ADME, Oryctolagus cuniculus, Intestine, microsome; conditions: 0.5 h
[6] = biological target: T2, Sterol O-acyltransferase 1 (Homo sapiens, UniProt P35610); experiment: Inhibition of ACAT1 in human monocytes-derived macrophages reduction in cholesteryl oleate formation preincubated for 2 hrs followed by [14C]-oleic acid/BSA/sodium oleate addition measured after 2 hrs by TLC assay
T2 sequence (P35610 whole entry): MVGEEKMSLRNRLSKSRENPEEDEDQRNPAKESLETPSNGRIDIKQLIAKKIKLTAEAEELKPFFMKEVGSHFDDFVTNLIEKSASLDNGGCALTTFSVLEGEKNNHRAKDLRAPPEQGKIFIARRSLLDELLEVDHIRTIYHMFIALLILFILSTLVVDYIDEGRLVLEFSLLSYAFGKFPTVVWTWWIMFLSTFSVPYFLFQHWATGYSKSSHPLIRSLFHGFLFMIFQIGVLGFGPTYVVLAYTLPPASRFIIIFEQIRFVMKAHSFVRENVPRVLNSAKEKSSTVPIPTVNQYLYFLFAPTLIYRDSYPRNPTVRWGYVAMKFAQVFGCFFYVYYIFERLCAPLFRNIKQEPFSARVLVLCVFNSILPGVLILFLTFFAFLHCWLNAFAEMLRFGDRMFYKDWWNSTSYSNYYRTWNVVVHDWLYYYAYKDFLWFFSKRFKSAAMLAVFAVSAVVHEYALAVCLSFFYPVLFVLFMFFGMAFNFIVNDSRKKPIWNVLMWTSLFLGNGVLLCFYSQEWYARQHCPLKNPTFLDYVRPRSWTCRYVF

[7] = biological target: T3, Sterol O-acyltransferase 1 (Rattus norvegicus, UniProt O70536); experiment: Inhibition of ACAT1 in 1 mg/ml rat liver microsomes
T3 sequence (O70536 whole entry): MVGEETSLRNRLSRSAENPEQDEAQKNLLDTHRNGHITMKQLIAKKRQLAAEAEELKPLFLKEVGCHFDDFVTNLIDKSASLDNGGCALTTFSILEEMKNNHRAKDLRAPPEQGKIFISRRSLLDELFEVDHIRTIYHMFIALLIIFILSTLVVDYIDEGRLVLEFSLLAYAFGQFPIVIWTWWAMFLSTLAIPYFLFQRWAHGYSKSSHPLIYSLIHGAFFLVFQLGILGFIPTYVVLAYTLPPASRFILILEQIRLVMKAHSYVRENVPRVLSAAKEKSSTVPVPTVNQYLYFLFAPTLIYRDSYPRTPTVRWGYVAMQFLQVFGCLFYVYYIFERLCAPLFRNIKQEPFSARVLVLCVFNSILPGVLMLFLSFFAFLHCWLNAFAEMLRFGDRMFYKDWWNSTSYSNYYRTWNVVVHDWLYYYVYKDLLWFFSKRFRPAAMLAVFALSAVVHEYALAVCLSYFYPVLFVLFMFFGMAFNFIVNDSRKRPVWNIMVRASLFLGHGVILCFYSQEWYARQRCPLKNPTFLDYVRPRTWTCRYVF

[8] = biological target: T3, Sterol O-acyltransferase 1; experiment: Inhibition of ACAT1 in 0.2 mg/ml rat liver microsomes
[9] = biological target: T1, Sterol O-acyltransferase 1; experiment: Inhibition of ACAT1 in mouse IC21 cells in presence of BSA; type: cell-based
[10] = biological target: T1, Sterol O-acyltransferase 1; experiment: Inhibition of ACAT1 in mouse IC21 cells in absence of BSA; type: cell-based
[11] = Tmax in non-fasted Sprague-Dawley rat at 30 mg/kg, po by LC-MS/MS analysis; type: ADME, organism-based; conditions: in vivo
[12] = Cmax in non-fasted Sprague-Dawley rat at 30 mg/kg, po by LC-MS/MS analysis; type: ADME, organism-based; parameters: dose 30 mg/kg, route oral; conditions: in vivo
[13] = AUC (0 to 8 hrs) in non-fasted Sprague-Dawley rat at 30 mg/kg, po by LC-MS/MS analysis; type: ADME, organism-based; parameters: dose 30 mg/kg, time < 8 hr, route oral; conditions: in vivo
Hamster [14] = experiment: Antiatherosclerotic activity in Bio F1B hamster model of diet-induced atherosclerosis assessed as reduction in lipid accumulation areas in aortic arch at 1 mg/kg/day added to chow pellets by oil red O staining based assay relative to control; type: functional; conditions: Cricetinae
Hamster [15] = experiment: Antiatherosclerotic activity in Bio F1B hamster model of diet-induced atherosclerosis assessed as reduction in lipid accumulation areas in aortic arch at 3 mg/kg/day added to chow pellets by oil red O staining based assay relative to control; type: functional; conditions: Cricetinae
Hamster [16] = experiment: Antiatherosclerotic activity in Bio F1B hamster model of diet-induced atherosclerosis assessed as reduction in lipid accumulation areas in aortic arch at 10 mg/kg/day added to chow pellets by oil red O staining based assay relative to control; type: functional; conditions: Cricetinae
Hamster [17] = experiment: Toxicity in Bio F1B hamster model of diet-induced atherosclerosis assessed as reduction in total plasma cholesterol at 1 mg/kg/day added to chow pellets relative to control; type: organism-based; parameters: scale not given: the % may be the effect or the level left; conditions: cricetinae, in vivo
Hamster [18] = experiment: Toxicity in Bio F1B hamster model of diet-induced atherosclerosis assessed as reduction in total plasma cholesterol at 3 mg/kg/day added to chow pellets relative to control; type: organism-based; parameters: scale not given: the % may be the effect or the level left; conditions: cricetinae, in vivo
Hamster [19] = experiment: Toxicity in Bio F1B hamster model of diet-induced atherosclerosis assessed as reduction in total plasma cholesterol at 10 mg/kg/day added to chow pellets relative to control; type: organism-based; parameters: scale not given: the % may be the effect or the level left; conditions: cricetinae, in vivo
Hamster [20] = experiment: Antiatherosclerotic activity in Bio F1B hamster model of diet-induced atherosclerosis assessed as reduction in lipid accumulation areas in aortic arch at 0.3 mg/kg/day added to chow pellets by oil red O staining based assay; type: functional, organism-based; conditions: Cricetinae
[21] = biological target: T2, Sterol O-acyltransferase 1; experiment: Inhibition of ACAT1 in human monocytes-derived macrophages reduction in cholesteryl oleate formation preincubated for 2 hrs followed by [14C]-oleic acid/sodium oleate addition measured after 2 hrs in absence of albumin by TLC assay
[22] = Inhibition of rabbit intestinal ACAT2; parameters: species or system Oryctolagus cuniculus

SMILES | IC50 [1] [nM] | IC50 [2] [nM] | IC50 [3] [nM] | Ratio IC50 (Oryctolagus cuniculus) | further results
CC(C)c1cc(C(C)C)c(CC(=O)NS(=O)(=O)Oc2c(C(C)C)cccc2C(C)C)c(C(C)C)c1 [AVASIMIBE] | 31000 | 13000 | 590 | 0.4 | IC50 [6]: 4100 nM; IC50 [7]: 12000 nM; IC50 [8]: 700 nM; IC50 [9]: 760 nM; IC50 [10]: 60 nM; Tmax [11]: 3.3 h; Cmax [12]: 4580 ng/mL; AUC(0-t) at 8 h [13]: 48100 ng·h/mL; inhibition in vivo at 1 mg/kg/day (Hamster [14]): 33%; inhibition in vivo at 3 mg/kg/day (Hamster [15]): 14%; inhibition in vivo at 10 mg/kg/day (Hamster [16]): 0%; Activity (Hamster [17]): 55%; Activity (Hamster [18]): 25%; Activity (Hamster [19]): 10%; inhibition (Hamster [20]): Active; IC50 [21]: 25 nM
CC(C)c1cccc(C(C)C)c1NC(=O)CCCCCSc1nc2cnccc2o1 | 45 | 150 | 2800 | 3.3 | –
CC(C)c1cccc(C(C)C)c1NC(=O)CCCCSc1nc2ccccc2o1 | 84 | 220 | 3600 | 2.6 | –
CCCCCCCCCCC(C)(C)C(=O)Nc1c(OC)cc(OC)cc1OC [CL-976] | 190 | 30 | – | – | IC50 [22]: 73 nM
CC(C)c1cccc(C(C)C)c1NC(=O)CCCCCSc1nc2ccc(CN(C)C)cc2o1 | 130 | 370 | 2400 | 2.8 | –
CC(C)c1cccc(C(C)C)c1NC(=O)CCCCCCCCCCCCCCSc1nc2ccccc2[nH]1 | 120 | 44 | 1700 | 0.4 | –
CC(C)c1cccc(C(C)C)c1NC(=O)CCCCSc1nc2ccccc2s1 | 62 | 130 | 57000 | 2.1 | –
CC(C)c1cccc(C(C)C)c1NC(=O)CCCCCSc1nc2cc(C(F)(F)F)ccc2o1 | 28 | 140 | 100 | 5 | –
CC(C)c1cccc(C(C)C)c1NC(=O)CCCCCSc1nc2cc(O)ccc2o1 | 43 | 120 | 2800 | 2.8 | –
CC(C)c1cccc(C(C)C)c1NC(=O)CCCSc1nc2ccccc2[nH]1 | 300 | 800 | 3100 | 2.7 | –
COC(=O)c1cccc2nc(SCCCCCC(=O)Nc3c(C(C)C)cccc3C(C)C)oc12 | 32 | 330 | 100 | 10.3 | –

The next compounds have a lower IC50 [1] than those just listed; values first:

IC50 [1] [nM] | IC50 [2] [nM] | IC50 [3] [nM] | SMILES | Ratio IC50 (Oryctolagus cuniculus) | further results
26 | 810 | 900 | COC(=O)c1cccc2oc(SCCCCCC(=O)Nc3c(C(C)C)cccc3C(C)C)nc12 | 31.2 | Drug metabolism [4]: Metabolite_Detected; Drug metabolism [5]: Metabolite_Detected
26 | 33 | 5200 | CC(C)c1cccc(C(C)C)c1NC(=O)CCCCCSc1nc2ccccc2s1 | 1.3 | –
26 | 38 | 350 | CC(C)c1cccc(C(C)C)c1NC(=O)CCCCCSc1nc2ccccc2[nH]1 | 1.5 | –
24 | 36 | 3000 | CC(C)c1cccc(C(C)C)c1NC(=O)CCCCCSc1nc2cccnc2o1 | 1.5 | –
19 | 29 | 460 | CC(C)c1cccc(C(C)C)c1NC(=O)CCCCCCCCCSc1nc2ccccc2[nH]1 | 1.5 | –
15 | 94 | 1100 | CC(C)c1cccc(C(C)C)c1NC(=O)CCCCCSc1nc2ccc(N(C)C)cc2o1 | 6.3 | –
6 | 14 | 100 | CC(C)c1cccc(C(C)C)c1NC(=O)CCCCCCCCCSc1nc2ccccc2o1 | 2.3 | –
